In one assay the test system is PBMCs infected with VSV-G pseudotyped HIV virus (VSV-G/pNLG1-P2A-ΔEnv). Description: cells. The assay is classed as cell-based, human. As to conditions: Homo sapiens, PBMC, read-out: TACK EC50.
Turning to `O=C1Nc2cc(Cn3nccc3CO)c(F)cc2[C@@](C#CC2CC2)(C(F)(F)F)N1` (single isomer, unassigned) [Example 5], the EC50 turned out to be 109 nM.
As for `O=C1Nc2cc(Cn3ccc(CO)n3)c(F)cc2[C@@](C#CC2CC2)(C(F)(F)F)N1` (single isomer, unassigned) [Example 6], the EC50 came out at 17.1 nM.
With `O=C1Nc2cc(Cn3c(=O)[nH]c4cccnc43)c(F)cc2[C@@](C#CC2CC2)(C(F)(F)F)N1` (single isomer, unassigned) [Example 7], the EC50 came out at 12 nM.
For the compound `O=C1Nc2cc(Cn3c(=O)[nH]c4ncccc43)c(F)cc2[C@@](C#CC2CC2)(C(F)(F)F)N1` (single isomer, unassigned) [Example 8], the concentration giving a half-maximal response (EC50) was determined as 38.7 nM.
As to `O=C1Nc2cc(Cn3ncc4c3CCOC4)c(F)cc2[C@@](C#CC2CC2)(C(F)(F)F)N1` (single isomer, unassigned) [Example 22], the EC50 was 60.5 nM.
The same measure, in the same setting: as for `O=C1Nc2cc(Cn3cc4c(n3)CCOC4)c(F)cc2[C@@](C#CC2CC2)(C(F)(F)F)N1` (single isomer, unassigned) [Example 23], the figure is 21.2 nM; as for `O=C1Nc2cc(Cn3ncc4ccncc43)c(F)cc2[C@@](C#CC2CC2)(C(F)(F)F)N1` (single isomer, unassigned) [Example 25], 59.9 nM; as for `O=C1Nc2cc(Cn3cc4ccncc4n3)c(F)cc2[C@@](C#CC2CC2)(C(F)(F)F)N1` (single isomer, unassigned) [Example 26], 13.6 nM.
For the compound `CC(F)(F)[C@@]1(C#CC2CC2)NC(=O)Nc2cc(Cn3cncc3CO)c(F)cc21` (single isomer, unassigned) [Example 50], the EC50 was found to be 68.1 nM.
On the same count and under the same terms, as for `CC(F)(F)[C@@]1(C#CC2CC2)NC(=O)Nc2cc(Cn3cnc(CO)c3)c(F)cc21` (single isomer, unassigned) [Example 51], the figure is 107 nM; as for `CC(O)c1ccn(Cc2cc3c(cc2F)[C@@](C#CC2CC2)(C(C)(F)F)NC(=O)N3)n1` (single isomer, unassigned) [Example 72, (S)-4-(cyclopropylethynyl)-4-(1,1-difluoroethyl)-6-fluoro-7-((3-((S or R)-1-hydroxyethyl)-1H-pyrazol-1-yl)methyl)-3,4-dihydroquinazolin-2(1H)-one], 46.2 nM.
Consider `CC(F)(F)[C@@]1(C#CC2CC2)NC(=O)Nc2cc(Cn3ncc(F)c3C(N)=O)c(F)cc21` (single isomer, unassigned) [Example 103], for which the EC50 worked out at 30.2 nM.
Regarding `CC(F)(F)[C@@]1(C#CC2CC2)NC(=O)Nc2cc(Cn3cc(F)c(C(N)=O)n3)c(F)cc21` (single isomer, unassigned) [Example 104], the EC50 stood at 14.6 nM.
As for `CC(F)(F)[C@@]1(C#CC2CC2)NC(=O)Nc2cc(Cn3ncnc3N)c(F)cc21` (single isomer, unassigned) [Example 105], the EC50 came to 10.9 nM.
As for `Nc1ncn(Cc2cc3c(cc2F)[C@@](C#CC2CC2)(C(F)(F)F)NC(=O)N3)n1` (single isomer, unassigned) [Example 107], the EC50 stood at 17.4 nM.
As for `CC(F)(F)[C@@]1(C#CC2CC2)NC(=O)Nc2cc(Cn3cnc(C(N)=O)n3)c(F)cc21` (single isomer, unassigned) [Example 113], the EC50 is 51.2 nM.
`CC(F)(F)[C@@]1(C#CC2CC2)NC(=O)Nc2cc(Cn3ncnc3C(N)=O)c(F)cc21` (single isomer, unassigned) [Example 114]: the EC50 was 18.5 nM.
On the same count and under the same terms, next, `NC(=O)c1ncnn1Cc1cc2c(cc1F)[C@@](C#CC1CC1)(C(F)(F)F)NC(=O)N2` (single isomer, unassigned) [Example 116]: 31.8 nM.
Still for that read-out and setting: next, `NC(=O)c1ncn(Cc2cc3c(cc2F)[C@@](C#CC2CC2)(C(F)(F)F)NC(=O)N3)n1` (single isomer, unassigned) [Example 117]: 31.6 nM; `CN1C(=O)NC(=O)C1Cc1cc2c(cc1F)[C@@](C#CC1CC1)(C(C)(F)F)NC(=O)N2` (single isomer, unassigned) [Example 124, (S or R)-5-(((S)-4-(cyclopropylethynyl)-4-(1,1-difluoroethyl)-6-fluoro-2-oxo-1,2,3,4-tetrahydroquinazolin-7-yl)methyl)-1-methylimidazolidine-2,4-dione]: 90.4 nM; `COc1ncn(Cc2cc3c(cc2F)[C@@](C#CC2CC2)(C(C)(F)F)NC(=O)N3)n1` [Example 1, (S)-4-(cyclopropylethynyl)-4-(1,1-difluoroethyl)-6-fluoro-7-((3-methoxy-1H-1,2,4-triazol-1-yl)methyl)-3,4-dihydroquinazolin-2(1H)-one]: 14.6 nM.
Regarding `CC(F)(F)[C@@]1(C#CC2CC2)NC(=O)Nc2cc(Cn3ccc(CO)n3)c(F)cc21` [Example 2, (S)-4-(cyclopropylethynyl)-4-(1,1-difluoroethyl)-6-fluoro-7-((3-(hydroxymethyl)-1H-pyrazol-1-yl)methyl)-3,4-dihydroquinazolin-2(1H)-one], the EC50 came to 14.5 nM.
As for `COc1cnn(Cc2cc3c(cc2F)[C@@](C#CC2CC2)(C(C)(F)F)NC(=O)N3)c1` [Example 3, (S)-4-(cyclopropylethynyl)-4-(1,1-difluoroethyl)-6-fluoro-7-((4-methoxy-1H-pyrazol-1-yl)methyl)-3,4-dihydroquinazolin-2(1H)-one], the half-maximal effective concentration (EC50) amounted to 14.4 nM.
`CC(F)(F)[C@@]1(C#CC2CC2)NC(=O)Nc2cc(Cn3cnc(CO)n3)c(F)cc21` [Example 4, (S)-4-(cyclopropylethynyl)-4-(1,1-difluoroethyl)-6-fluoro-7-((3-(hydroxymethyl)-1H-1,2,4-triazol-1-yl)methyl)-3,4-dihydroquinazolin-2(1H)-one]: the EC50 is 67.7 nM.
Regarding `CN1CC(=O)N(Cc2cc3c(cc2F)[C@@](C#CC2CC2)(C(F)(F)F)NC(=O)N3)C1=O` [Example 9, (S)-3-((4-(cyclopropylethynyl)-6-fluoro-2-oxo-4-(trifluoromethyl)-1,2,3,4-tetrahydroquinazolin-7-yl)methyl)-1-methylimidazolidine-2,4-dione], the EC50 was found to be 74.6 nM.
For `CC(F)(F)[C@@]1(C#CC2CC2)NC(=O)Nc2cc(Cn3cc(-c4ccncc4)cn3)c(F)cc21` [Example 10, (S)-4-(cyclopropylethynyl)-4-(1,1-difluoroethyl)-6-fluoro-7-((4-(pyridin-4-yl)-1H-pyrazol-1-yl)methyl)-3,4-dihydroquinazolin-2(1H)-one], the EC50 came to 37.2 nM.
With `Cc1cnn(Cc2cc3c(cc2F)[C@@](C#CC2CC2)(C(C)(F)F)NC(=O)N3)c1` [Example 11, (S)-4-(cyclopropylethynyl)-4-(1,1-difluoroethyl)-6-fluoro-7-((4-methyl-1H-pyrazol-1-yl)methyl)-3,4-dihydroquinazolin-2(1H)-one], the EC50 was 46.6 nM.
Consider `CC(F)(F)[C@@]1(C#CC2CC2)NC(=O)Nc2cc(Cn3c(=O)[nH]c4ccccc43)c(F)cc21` [Example 12, (S)-4-(cyclopropylethynyl)-4-(1,1-difluoroethyl)-6-fluoro-7-((2-oxo-2,3-dihydro-1H-benzo[d]imidazol-1-yl)methyl)-3,4-dihydroquinazolin-2(1H)-one], for which the EC50 was 19.6 nM.
As to `O=C1Nc2cc(Cn3c(=O)oc4ccccc43)c(F)cc2[C@@](C#CC2CC2)(C(F)(F)F)N1` [Example 13, (S)-3-((4-(cyclopropylethynyl)-6-fluoro-2-oxo-4-(trifluoromethyl)-1,2,3,4-tetrahydroquinazolin-7-yl)methyl)benzo[d]oxazol-2(3H)-one], the EC50 stood at 14.3 nM.
As for `CC(F)(F)[C@@]1(C#CC2CC2)NC(=O)Nc2cc(CN3C(=O)CNC3=O)c(F)cc21` [Example 14, (S)-3-((4-(cyclopropylethynyl)-4-(1,1-difluoroethyl)-6-fluoro-2-oxo-1,2,3,4-tetrahydroquinazolin-7-yl)methyl)imidazolidine-2,4-dione], the EC50 worked out at 24.8 nM.
As to `CC(F)(F)[C@@]1(C#CC2CC2)NC(=O)Nc2cc(Cn3cc(F)cn3)c(F)cc21` [Example 15, (S)-4-(cyclopropylethynyl)-4-(1,1-difluoroethyl)-6-fluoro-7-((4-fluoro-1H-pyrazol-1-yl)methyl)-3,4-dihydroquinazolin-2(1H)-one], the EC50 was 27.3 nM.
Still for that read-out and setting: next, `CC(F)(F)[C@@]1(C#CC2CC2)NC(=O)Nc2cc(Cn3cc(Cl)cn3)c(F)cc21` [Example 16, (S)-7-((4-chloro-1H-pyrazol-1-yl)methyl)-4-(cyclopropylethynyl)-4-(1,1-difluoroethyl)-6-fluoro-3,4-dihydroquinazolin-2(1H)-one]: 32.4 nM.

Staying with this assay, now noted: read-out: TACK EC50.
In the case of `COC(C)c1ccn(Cc2cc3c(cc2F)[C@@](C#CC2CC2)(C(C)(F)F)NC(=O)N3)n1` (single isomer, unassigned) [Example 58, (S)-4-(cyclopropylethynyl)-4-(1,1-difluoroethyl)-6-fluoro-7-((3-((R or S)-1-methoxyethyl)-1H-pyrazol-1-yl)methyl)-3,4-dihydroquinazolin-2(1H)-one], the EC50 worked out at 25 nM.
`COC(C)c1ccn(Cc2cc3c(cc2F)[C@@](C#CC2CC2)(C(C)(F)F)NC(=O)N3)n1` (single isomer, unassigned) [Example 59, (S)-4-(cyclopropylethynyl)-4-(1,1-difluoroethyl)-6-fluoro-7-((3-((S or R)-1-methoxyethyl)-1H-pyrazol-1-yl)methyl)-3,4-dihydroquinazolin-2(1H)-one]: the EC50 is 55.6 nM.
On to `CC(O)c1ccn(Cc2cc3c(cc2F)[C@@](C#CC2CC2)(C(C)(F)F)NC(=O)N3)n1` (single isomer, unassigned) [Example 73, (S)-4-(cyclopropylethynyl)-4-(1,1-difluoroethyl)-6-fluoro-7-((3-((R or S)-1-hydroxyethyl)-1H-pyrazol-1-yl)methyl)-3,4-dihydroquinazolin-2(1H)-one], for which the EC50 stood at 24.5 nM.
`CN1C(=O)NC(=O)C1Cc1cc2c(cc1F)[C@@](C#CC1CC1)(C(C)(F)F)NC(=O)N2` (single isomer, unassigned) [Example 125, (R or S)-5-(((S)-4-(cyclopropylethynyl)-4-(1,1-difluoroethyl)-6-fluoro-2-oxo-1,2,3,4-tetrahydroquinazolin-7-yl)methyl)-1-methylimidazolidine-2,4-dione]: the EC50 is 111 nM.

(Values after patent US20250026759A1 (Merck Sharp & Dohme LLC, priority 2023, published 2025).)
